Reference: publication PMC6896172, “Successful Targeting of the Warburg Effect in Prostate Cancer by Glucose-Conjugated 1,4-Naphthoquinones” (Cancers, 2019)

Tested on: 22Rv1 cells
Assay: Global proteome analysis (LC-MS/MS, DIA) of differentially expressed proteins
Format: cell-based, human
Description: 22Rv1 cells were seeded in T75 culture bottles (4 × 10^6 cells/bottle in 20 mL/bottle), treated for 48 h with the 5 µM of compound 11 or vehicle (DMSO), harvested by scratching, washed twice with ice-cold PBS and flash-frozen. Cells were lysed and sonicated. The protein extracts were then heat-denaturated, reduced, alkylated and digested by trypsin. Peptides were chromatographically separated using full recovery autosampler vials and a nano-UPLC system (Acquity, Waters Corporation, Milford, MS, USA), coupled via electrospray ionization (ESI) to a tandem mass spectrometer equipped with a quadrupole and an orbitrap (QExactive, Thermo Fisher Scientific, Bremen, Germany), using MS/MS mode in data dependent acquisition (DDA) and data independent acquisition (DIA). The peptides, analyzed with DDA-LC-MS/MS, were identified with the search engine Sequest, integrated in the Proteome Discoverer software version 2.0 (Thermo Fischer Scientific) using the human Uniprot protein database (EMBL; Hinxton Cambridge, UK, release December 2018). […] For the details of sample preparation and proceeding, data acquisition and analysis see the Supplementary information. […]
serum (FBS, Invitrogen) and 1% penicillin/streptomycin (Invitrogen)). […]
Cell lines were lysed in 100 mM triethylammonium bicarbonate and 1% w/v sodium deoxycholate buffer followed by probe sonication to destroy polynucleotides and heat induce protein denaturing at 99 °C for 5 min. Protein concentrations were estimated with a bicinchonic acid (BCA) protein assay (Thermo Fisher Scientific, Bremen, Germany). 20 µg of protein were reduced in presence of 10 mM dithiotreithol (Sigma Aldrich) for 30 min at 60 °C followed by cysteine alkylation with 20 mM iodo acetamide (Sigma Aldrich) for 30 min at 37 °C in the dark and enzymatic degradation with sequencing grade trypsin (Promega) over night at 37 °C. Digestion was quenched with 1% formic acid (FA), precipitated sodium deoxycholate removed by centrifugation for 5 min at 14,000 g and the supernatant was dried in a vacuum centrifuge.
LC-MS/MS in Data Dependent and Data Independent Mode
Samples were resuspended in 0.1% FA and transferred into a full recovery autosampler vial (Waters). Chromatographic separation was achieved on a nano -UPLC system (Acquity, Waters Corporation, Milford, MS, USA) with a two-buffer-system (buffer A: 0.1% FA in water, buffer B:
0.1% FA in Acetonitrile (ACN), both at pH = 3). Attached to the UPLC was a reversed -phase peptide trapping column (Symmetry C18, 180 µm × 20 mm, 100 Å pore size, 5 µm particle size) for desalting, followed by a reversed-phase capillary separation of the tryptic peptides (BEH C18; 75 µm × 200 mm, 130 Å pore size, 1.7 µm particle size), using a 60 min gradient with increasing ACN concentration from 2–30% ACN. The eluting peptides were analyzed on a quadrupole-orbitrap mass spectrometer (QExactive, Thermo Fisher Scientific, Bremen, Germany) in data dependent acquisition (DDA) and data independent acquisition (DIA) for quantification.
In DDA mode, one replicate of each cell line was randomly chosen and 1 µg per sample was used per LC-MS/MS run to build a reference spectral library used for data extraction of samples acquired in DIA mode. For DDA, the 12 most intense ions per precursor scan (1 × 10 6 ions, 70,000 Resolution, 120 ms fill time) were analyzed by MS/MS (HCD at 25 normalized collision energy, 1 × 105 ions, 17,500 Resolution, 50 ms fill time) in a range of 400–1300 m/z. A dynamic precursor exclusion of 20 s was used. For DIA, 1 µg of each sample was analyzed using a 30 sequential 20 Da fixed window method covering the mass range from 400 –1000 m/z. Per cycle, 2 precursor scans (1 × […]
28 normalized collision energy, 1 × 106 ions, 17,500 Resolution, 50 ms fill time) were performed.
After the first precursor scan, 15 MS/MS scans were performed covering the precursor mass range from 400–700 m/z followed by the second precursor scan and another 15 MS/MS scans ranging from […]
LC-MS/MS Data Processing and Analysis […]

Structure (SMILES): CC1(C)OC2OC(C(O)COC3=CC(=O)c4cccc(O)c4C3=O)C(O)C2O1 (stereo not shown) [Compound 11]
- Fold change (treated / control) (protein ARID2_HUMAN (Q68CP9)): 0.5698
- Fold change (treated / control) (protein BAZ1B_HUMAN (Q9UIG0)): 0.5909
- Fold change (treated / control) (protein BCAM_HUMAN (P50895)): 0.2614
- Fold change (treated / control) (protein BRD1_HUMAN (O95696)): 0.5595
- Fold change (treated / control) (protein CBX5_HUMAN (P45973)): 0.6078
- Fold change (treated / control) (protein CCD86_HUMAN (Q9H6F5)): 0.6454
- Fold change (treated / control) (protein CEBPZ_HUMAN (Q03701)): 0.6117
- Fold change (treated / control) (protein CHCH5_HUMAN (Q9BSY4)): 0.3153
- Fold change (treated / control) (protein CISD1_HUMAN (Q9NZ45)): 0.6534
- Fold change (treated / control) (protein CLUS_HUMAN (P10909)): 0.6547
- Fold change (treated / control) (protein CMTD1_HUMAN (Q86VU5)): 0.6695
- Fold change (treated / control) (protein COASY_HUMAN (Q13057)): 0.6716
- Fold change (treated / control) (protein COQ5_HUMAN (Q5HYK3)): 0.6569
- Fold change (treated / control) (protein CPSF7_HUMAN (Q8N684)): 0.5898
- Fold change (treated / control) (protein CRIP2_HUMAN (P52943)): 0.5784
- Fold change (treated / control) (protein CX6B1_HUMAN (P14854)): 0.5635
- Fold change (treated / control) (protein DDX21_HUMAN (Q9NR30)): 0.6203
- Fold change (treated / control) (protein DDX50_HUMAN (Q9BQ39)): 0.5638
- Fold change (treated / control) (protein DDX52_HUMAN (Q9Y2R4)): 0.5706
- Fold change (treated / control) (protein DESP_HUMAN (P15924)): 0.5753
- Fold change (treated / control) (protein DHX30_HUMAN (Q7L2E3)): 0.6273
- Fold change (treated / control) (protein DPOE3_HUMAN (Q9NRF9)): 0.6062
- Fold change (treated / control) (protein E2AK2_HUMAN (P19525)): 0.6134
- Fold change (treated / control) (protein EDF1_HUMAN (O60869)): 0.6154
- Fold change (treated / control) (protein EFTU_HUMAN (P49411)): 0.6185
- Fold change (treated / control) (protein ELOV5_HUMAN (Q9NYP7)): 0.5895
- Fold change (treated / control) (protein FAKD2_HUMAN (Q9NYY8)): 0.6444
- Fold change (treated / control) (protein FKB10_HUMAN (Q96AY3)): 0.625
- Fold change (treated / control) (protein FKBP8_HUMAN (Q14318)): 0.6712
- Fold change (treated / control) (protein GCN1_HUMAN (Q92616)): 0.6676
- Fold change (treated / control) (protein GRSF1_HUMAN (Q12849)): 0.6529
- Fold change (treated / control) (protein H2AY_HUMAN (O75367)): 0.6499
- Fold change (treated / control) (protein HSPB6_HUMAN (O14558)): 0.6349
- Fold change (treated / control) (protein IF4A1_HUMAN (P60842)): 0.6202
- Fold change (treated / control) (protein IMA1_HUMAN (P52292)): 0.5682
- Fold change (treated / control) (protein IQEC2_HUMAN (Q5JU85)): 0.6175
- Fold change (treated / control) (protein K2013_HUMAN (Q8IYS2)): 0.3342
- Fold change (treated / control) (protein LRWD1_HUMAN (Q9UFC0)): 0.5648
- Fold change (treated / control) (protein MAP2_HUMAN (P50579)): 0.6543
- Fold change (treated / control) (protein MCM3_HUMAN (P25205)): 0.6329
- Fold change (treated / control) (protein MCM4_HUMAN (P33991)): 0.5634
- Fold change (treated / control) (protein MCM5_HUMAN (P33992)): 0.5949
- Fold change (treated / control) (protein MCM6_HUMAN (Q14566)): 0.6119
- Fold change (treated / control) (protein MCM7_HUMAN (P33993)): 0.5855
- Fold change (treated / control) (protein MIPEP_HUMAN (Q99797)): 0.6023
- Fold change (treated / control) (protein MTA1_HUMAN (Q13330)): 0.5631
- Fold change (treated / control) (protein MTA2_HUMAN (O94776)): 0.5939
- Fold change (treated / control) (protein MYOME_HUMAN (Q5VU43)): 0.6576
- Fold change (treated / control) (protein NDUA3_HUMAN (O95167)): 0.3195
- Fold change (treated / control) (protein NDUAC_HUMAN (Q9UI09)): 0.6076
- Fold change (treated / control) (protein NDUV1_HUMAN (P49821)): 0.6332
- Fold change (treated / control) (protein NUDC_HUMAN (Q9Y266)): 0.6476
- Fold change (treated / control) (protein P4HTM_HUMAN (Q9NXG6)): 0.3114
- Fold change (treated / control) (protein PCNA_HUMAN (P12004)): 0.6578
- Fold change (treated / control) (protein PDS5A_HUMAN (Q29RF7)): 0.5949
- Fold change (treated / control) (protein PTMA_HUMAN (P06454)): 0.5745
- Fold change (treated / control) (protein RFC2_HUMAN (P35250)): 0.5826
- Fold change (treated / control) (protein RFC3_HUMAN (P40938)): 0.567
- Fold change (treated / control) (protein RFC4_HUMAN (P35249)): 0.5722
- Fold change (treated / control) (protein RFC5_HUMAN (P40937)): 0.6148
- Fold change (treated / control) (protein RL1D1_HUMAN (O76021)): 0.6228
- Fold change (treated / control) (protein RL4_HUMAN (P36578)): 0.563
- Fold change (treated / control) (protein RL10A_HUMAN (P62906)): 0.5923
- Fold change (treated / control) (protein RL13_HUMAN (P26373)): 0.6224
- Fold change (treated / control) (protein RL15_HUMAN (P61313)): 0.6202
- Fold change (treated / control) (protein RL19_HUMAN (P84098)): 0.3072
- Fold change (treated / control) (protein RL23A_HUMAN (P62750)): 0.5699
- Fold change (treated / control) (protein RL23_HUMAN (P62829)): 0.6468
- Fold change (treated / control) (protein RL27A_HUMAN (P46776)): 0.6191
- Fold change (treated / control) (protein RL34_HUMAN (P49207)): 0.2863
- Fold change (treated / control) (protein RL36_HUMAN (Q9Y3U8)): 0.6291
- Fold change (treated / control) (protein RM11_HUMAN (Q9Y3B7)): 0.6501
- Fold change (treated / control) (protein RM45_HUMAN (Q9BRJ2)): 0.6189
- Fold change (treated / control) (protein RM53_HUMAN (Q96EL3)): 0.5657
- Fold change (treated / control) (protein RM54_HUMAN (Q6P161)): 0.6079
- Fold change (treated / control) (protein RPA34_HUMAN (O15446)): 0.6508
- Fold change (treated / control) (protein RPAB5_HUMAN (P62875)): 0.5655
- Fold change (treated / control) (protein RS2_HUMAN (P15880)): 0.6402
- Fold change (treated / control) (protein RS6_HUMAN (P62753)): 0.6108
- Fold change (treated / control) (protein RS9_HUMAN (P46781)): 0.6218
- Fold change (treated / control) (protein S27A3_HUMAN (Q5K4L6)): 0.6711
- Fold change (treated / control) (protein SERC1_HUMAN (Q9NRX5)): 0.3307
- Fold change (treated / control) (protein SIGIR_HUMAN (Q6IA17)): 0.5907
- Fold change (treated / control) (protein SMCA5_HUMAN (O60264)): 0.6602
- Fold change (treated / control) (protein SMRC1_HUMAN (Q92922)): 0.6541
- Fold change (treated / control) (protein SPB1_HUMAN (Q8IY81)): 0.6134
- Fold change (treated / control) (protein STRBP_HUMAN (Q96SI9)): 0.6608
- Fold change (treated / control) (protein SUOX_HUMAN (P51687)): 0.6055
- Fold change (treated / control) (protein TF3C1_HUMAN (Q12789)): 0.6535
- Fold change (treated / control) (protein TF3C5_HUMAN (Q9Y5Q8)): 0.6483
- Fold change (treated / control) (protein TIM8B_HUMAN (Q9Y5J9)): 0.3123
- Fold change (treated / control) (protein UBL5_HUMAN (Q9BZL1)): 0.5618
- Fold change (treated / control) (protein UCRI_HUMAN (P47985)): 0.5774
- Fold change (treated / control) (protein UTP18_HUMAN (Q9Y5J1)): 0.63
- Fold change (treated / control) (protein VIGLN_HUMAN (Q00341)): 0.6343
- Fold change (treated / control) (protein XRN2_HUMAN (Q9H0D6)): 0.664
- Fold change (treated / control) (protein YBOX1_HUMAN (P67809)): 0.6605
- Fold change (treated / control) (protein ZN326_HUMAN (Q5BKZ1)): 0.6081
- Fold change (treated / control) (protein ZN428_HUMAN (Q96B54)): 0.5792
- Fold change (treated / control) (protein ZN595_HUMAN (Q8IYB9)): 0.6231
